PubChem BioAssay (NCI)
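How tested: cells in 96-well plates exposed to compound for 48 hours at five concentrations. The concentration for full growth arrest is given as TGI.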

Key:
Test in all cases: inhibition of tumour cell growth, NCI panel, 48 h
HCT-15 colon = system: HCT-15 colon
UACC-62 melanoma = system: UACC-62 melanoma
SK-MEL-2 melanoma = system: SK-MEL-2 melanoma
LOX IMVI melanoma = system: LOX IMVI melanoma
DU-145 prostate = system: DU-145 prostate
OVCAR-4 ovarian = system: OVCAR-4 ovarian
SF-268 CNS = system: SF-268 CNS
UACC-257 melanoma = system: UACC-257 melanoma
UO-31 renal = system: UO-31 renal
786-0 renal = system: 786-0 renal
M14 melanoma = system: M14 melanoma
HOP-62 NSCLC = system: HOP-62 NSCLC
IGROV1 ovarian = system: IGROV1 ovarian
HL-60(TB) leukemia = system: HL-60(TB) leukemia
TK-10 renal = system: TK-10 renal
SK-OV-3 ovarian = system: SK-OV-3 ovarian
MCF7 breast = system: MCF7 breast
KM12 colon = system: KM12 colon
MOLT-4 leukemia = system: MOLT-4 leukemia
BT-549 breast = system: BT-549 breast
SF-295 CNS = system: SF-295 CNS
SK-MEL-5 melanoma = system: SK-MEL-5 melanoma
ACHN renal = system: ACHN renal
K-562 leukemia = system: K-562 leukemia
MDA-MB-231 breast = system: MDA-MB-231 breast
COLO 205 colon = system: COLO 205 colon
A498 renal = system: A498 renal
NCI-H226 lung = system: NCI-H226 lung
U251 CNS = system: U251 CNS
HCT-116 colon = system: HCT-116 colon
SN12C renal = system: SN12C renal
T-47D breast = system: T-47D breast
HT29 colon = system: HT29 colon
MDA-N = system: MDA-N
A549 NSCLC = system: A549 NSCLC
MDA-MB-435 = system: MDA-MB-435
SR leukemia = system: SR leukemia
MALME-3M melanoma = system: MALME-3M melanoma
SW-620 colon = system: SW-620 colon
HS 578T breast = system: HS 578T breast
SK-MEL-28 melanoma = system: SK-MEL-28 melanoma
PC-3 prostate = system: PC-3 prostate
NCI-H23 lung = system: NCI-H23 lung
OVCAR-5 ovarian = system: OVCAR-5 ovarian
RXF 393 renal = system: RXF 393 renal
CAKI-1 renal = system: CAKI-1 renal
EKVX NSCLC = system: EKVX NSCLC
NCI/ADR-RES ovarian = system: NCI/ADR-RES ovarian
HOP-92 NSCLC = system: HOP-92 NSCLC
OVCAR-3 ovarian = system: OVCAR-3 ovarian
NCI-H522 lung = system: NCI-H522 lung
SNB-19 CNS = system: SNB-19 CNS
RPMI-8226 leukemia = system: RPMI-8226 leukemia
OVCAR-8 ovarian = system: OVCAR-8 ovarian
HCC-2998 colon = system: HCC-2998 colon
SNB-75 CNS = system: SNB-75 CNS
NCI-H460 lung = system: NCI-H460 lung
CCRF-CEM leukemia = system: CCRF-CEM leukemia
SF-539 CNS = system: SF-539 CNS

`CC(C)(C)OC(=O)CCC1NC(=O)[C@@H]2Cc3c([nH]c4ccccc34)C(C3CCCCC3)N2C1=O` (stereo partly drawn) was tested, and the TGI (HCT-15 colon) was > 100 µM, the TGI (UACC-62 melanoma) was > 100 µM and the TGI (SK-MEL-2 melanoma) was 65.5 µM. The TGI (LOX IMVI melanoma) was > 100 µM, the TGI (DU-145 prostate) was > 100 µM and the TGI (OVCAR-4 ovarian) was > 100 µM. The TGI (SF-268 CNS) was > 100 µM, the TGI (UACC-257 melanoma) was > 100 µM and the TGI (UO-31 renal) was > 100 µM. For the same compound, the TGI (786-0 renal) was > 100 µM, the TGI (M14 melanoma) was > 100 µM and the TGI (HOP-62 NSCLC) was > 100 µM. For the same compound, the TGI (IGROV1 ovarian) was > 100 µM, the TGI (HL-60(TB) leukemia) was 41.9 µM and the TGI (TK-10 renal) was > 100 µM. The TGI (SK-OV-3 ovarian) was > 100 µM, the TGI (MCF7 breast) was > 100 µM and the TGI (KM12 colon) was 78 µM. For the same compound, the TGI (MOLT-4 leukemia) was 61.3 µM, the TGI (BT-549 breast) was > 100 µM and the TGI (SF-295 CNS) was 66.2 µM. For the same compound, the TGI (SK-MEL-5 melanoma) was > 100 µM, the TGI (ACHN renal) was > 100 µM and the TGI (K-562 leukemia) was > 100 µM. The TGI (MDA-MB-231 breast) was 76.6 µM, the TGI (COLO 205 colon) was 38.9 µM and the TGI (A498 renal) was > 100 µM. For the same compound, the TGI (NCI-H226 lung) was > 100 µM, the TGI (U251 CNS) was > 100 µM and the TGI (HCT-116 colon) was > 100 µM. The TGI (SN12C renal) was 65.6 µM, the TGI (T-47D breast) was > 100 µM and the TGI (HT29 colon) was 40.2 µM. For the same compound, the TGI (MDA-N) was > 100 µM, the TGI (A549 NSCLC) was > 100 µM and the TGI (MDA-MB-435) was > 100 µM. The TGI (SR leukemia) was 61.1 µM, the TGI (MALME-3M melanoma) was 80.3 µM and the TGI (SW-620 colon) was > 100 µM. For the same compound, the TGI (HS 578T breast) was > 100 µM, the TGI (SK-MEL-28 melanoma) was > 100 µM and the TGI (PC-3 prostate) was 74.2 µM. The TGI (NCI-H23 lung) was > 100 µM, the TGI (OVCAR-5 ovarian) was > 100 µM and the TGI (RXF 393 renal) was > 100 µM. The TGI (CAKI-1 renal) was > 100 µM, the TGI (EKVX NSCLC) was > 100 µM and the TGI (NCI/ADR-RES ovarian) was > 100 µM. For the same compound, the TGI (HOP-92 NSCLC) was 78.3 µM, the TGI (OVCAR-3 ovarian) was 99.7 µM and the TGI (NCI-H522 lung) was > 100 µM. For the same compound, the TGI (SNB-19 CNS) was > 100 µM, the TGI (RPMI-8226 leukemia) was 56.5 µM and the TGI (OVCAR-8 ovarian) was > 100 µM.
`Cc1noc(NS(=O)(=O)c2ccc(NC(=O)c3ccc4[nH]c5ccccc5c(=O)c4c3)cc2)c1C` was tested, and the TGI (HCT-15 colon) was > 100 µM, the TGI (UACC-62 melanoma) was > 100 µM and the TGI (SK-MEL-2 melanoma) was > 100 µM. The TGI (LOX IMVI melanoma) was 56.5 µM, the TGI (DU-145 prostate) was > 100 µM and the TGI (OVCAR-4 ovarian) was > 100 µM. For the same compound, the TGI (SF-268 CNS) was > 100 µM, the TGI (UACC-257 melanoma) was > 100 µM and the TGI (UO-31 renal) was > 100 µM. For the same compound, the TGI (786-0 renal) was > 100 µM, the TGI (M14 melanoma) was > 100 µM and the TGI (HOP-62 NSCLC) was > 100 µM. For the same compound, the TGI (IGROV1 ovarian) was > 100 µM, the TGI (HL-60(TB) leukemia) was 66.8 µM and the TGI (TK-10 renal) was > 100 µM. For the same compound, the TGI (SK-OV-3 ovarian) was > 100 µM, the TGI (MCF7 breast) was 66.5 µM and the TGI (KM12 colon) was > 100 µM. The TGI (MOLT-4 leukemia) was 67.6 µM, the TGI (BT-549 breast) was > 100 µM and the TGI (HCC-2998 colon) was 65.2 µM. The TGI (SF-295 CNS) was > 100 µM, the TGI (SK-MEL-5 melanoma) was > 100 µM and the TGI (ACHN renal) was > 100 µM. For the same compound, the TGI (K-562 leukemia) was 81.5 µM, the TGI (MDA-MB-231 breast) was > 100 µM and the TGI (COLO 205 colon) was > 100 µM. For the same compound, the TGI (SNB-75 CNS) was > 100 µM, the TGI (NCI-H226 lung) was > 100 µM and the TGI (U251 CNS) was > 100 µM. The TGI (HCT-116 colon) was > 100 µM, the TGI (SN12C renal) was > 100 µM and the TGI (T-47D breast) was 63.2 µM. The TGI (HT29 colon) was > 100 µM, the TGI (MDA-N) was > 100 µM and the TGI (A549 NSCLC) was > 100 µM. The TGI (MDA-MB-435) was > 100 µM, the TGI (NCI-H460 lung) was > 100 µM and the TGI (SR leukemia) was 85.2 µM. For the same compound, the TGI (MALME-3M melanoma) was > 100 µM, the TGI (SW-620 colon) was > 100 µM and the TGI (HS 578T breast) was > 100 µM. The TGI (SK-MEL-28 melanoma) was > 100 µM, the TGI (PC-3 prostate) was > 100 µM and the TGI (NCI-H23 lung) was > 100 µM. For the same compound, the TGI (CCRF-CEM leukemia) was 67.3 µM, the TGI (OVCAR-5 ovarian) was > 100 µM and the TGI (RXF 393 renal) was 98 µM. The TGI (CAKI-1 renal) was > 100 µM, the TGI (EKVX NSCLC) was > 100 µM and the TGI (NCI/ADR-RES ovarian) was > 100 µM. The TGI (HOP-92 NSCLC) was > 100 µM, the TGI (OVCAR-3 ovarian) was 77.8 µM and the TGI (NCI-H522 lung) was 76.2 µM. For the same compound, the TGI (SNB-19 CNS) was > 100 µM, the TGI (SF-539 CNS) was 62.2 µM and the TGI (RPMI-8226 leukemia) was > 100 µM. For the same compound, the TGI (OVCAR-8 ovarian) was > 100 µM.
`CCN1C(Cl)=NS(=O)(=O)c2ccccc21` was tested, and the TGI (HCT-15 colon) was 35.2 µM, the TGI (UACC-62 melanoma) was 25.6 µM and the TGI (SK-MEL-2 melanoma) was > 100 µM. For the same compound, the TGI (LOX IMVI melanoma) was 36.7 µM, the TGI (DU-145 prostate) was > 100 µM and the TGI (OVCAR-4 ovarian) was 47.8 µM. For the same compound, the TGI (SF-268 CNS) was > 100 µM, the TGI (UACC-257 melanoma) was 80.8 µM and the TGI (UO-31 renal) was 32.1 µM. It also gave a TGI (786-0 renal) of 64.6 µM, a TGI (M14 melanoma) of 32.8 µM and a TGI (HOP-62 NSCLC) of 70.1 µM. For the same compound, the TGI (IGROV1 ovarian) was > 100 µM, the TGI (HL-60(TB) leukemia) was 87.2 µM and the TGI (TK-10 renal) was 37 µM. The TGI (SK-OV-3 ovarian) was > 100 µM, the TGI (MCF7 breast) was > 100 µM and the TGI (KM12 colon) was > 100 µM. The TGI (MOLT-4 leukemia) was > 100 µM, the TGI (BT-549 breast) was 44 µM and the TGI (HCC-2998 colon) was 45.7 µM. For the same compound, the TGI (SF-295 CNS) was > 100 µM, the TGI (SK-MEL-5 melanoma) was 33.1 µM and the TGI (ACHN renal) was 34.1 µM. For the same compound, the TGI (K-562 leukemia) was 39.3 µM, the TGI (MDA-MB-231 breast) was 65.1 µM and the TGI (COLO 205 colon) was 32.5 µM. For the same compound, the TGI (A498 renal) was 44.6 µM, the TGI (NCI-H226 lung) was 55.7 µM and the TGI (U251 CNS) was > 100 µM. It also gave a TGI (HCT-116 colon) of 74 µM, a TGI (SN12C renal) of 37.9 µM and a TGI (T-47D breast) of 78.6 µM. For the same compound, the TGI (HT29 colon) was > 100 µM, the TGI (MDA-N) was > 100 µM and the TGI (A549 NSCLC) was > 100 µM. The TGI (MDA-MB-435) was > 100 µM, the TGI (NCI-H460 lung) was 64.7 µM and the TGI (SR leukemia) was > 100 µM. For the same compound, the TGI (SW-620 colon) was > 100 µM, the TGI (HS 578T breast) was > 100 µM and the TGI (SK-MEL-28 melanoma) was > 100 µM. For the same compound, the TGI (PC-3 prostate) was > 100 µM, the TGI (NCI-H23 lung) was 52.5 µM and the TGI (CCRF-CEM leukemia) was 81 µM. It also gave a TGI (OVCAR-5 ovarian) of 76 µM, a TGI (RXF 393 renal) of 32.2 µM and a TGI (CAKI-1 renal) of 4.31 µM. For the same compound, the TGI (EKVX NSCLC) was 53.7 µM, the TGI (NCI/ADR-RES ovarian) was 85.2 µM and the TGI (HOP-92 NSCLC) was 42.1 µM. For the same compound, the TGI (OVCAR-3 ovarian) was 34.8 µM, the TGI (NCI-H522 lung) was 24.6 µM and the TGI (SNB-19 CNS) was > 100 µM. The TGI (SF-539 CNS) was 35.9 µM and the TGI (OVCAR-8 ovarian) was > 100 µM.
